Measurements reported in the supplement of paper PMC10331698.
± gives the standard deviation of the averaged measurements.

Legend:
Test in all cases: level (log10 ratio to DMSO vehicle control); higher = higher biomarker level / cell amount than vehicle control
Conditions in all cases: in DMSO
Perfluoropentanoic acid = compound: O=C(O)C(F)(F)C(F)(F)C(F)(F)C(F)(F)F [Perfluoropentanoic acid]
Experimental: (§1)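 BioMAP Diversity Plus panel of 12 human primary cell co-culture systems (3C, 4H, LPS, SAg, BT, BF4T, BE3C, CASM3C, HDF3CGF, KF3CT, MyoF, Mphg). Compounds were added 1 h before stimulation and left for 24 h (MyoF 48 h; BT 72 h for soluble read-outs or 6 d for IgG). Biomarkers were read by ELISA, cytotoxicity by SRB, PBMC viability and proliferation by Alamar Blue. Each well value was divided by the mean of 8 DMSO control wells on the same plate and log10 transformed; duplicate blinded samples were tested at 4 concentrations.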

[1] = compound: C=C(C)C(=O)OCCC(F)(F)C(F)(F)C(F)(F)C(F)(F)C(F)(C(F)(F)F)C(F)(F)F [(Perfluoro-5-methylhexyl)ethyl 2-methylprop-2-enoate]
Experimental: as §1

[2] = compound: O=C(O)C(F)(F)C(F)(F)C(F)F [4H-Perfluorobutanoic acid]
Experimental: as §1

[3] = compound: O=C(O)C(F)(F)C(F)(F)C(F)(F)C(F)(F)C(F)(F)C(F)(F)C(F)(F)C(F)F [9-H-Perfluorononanoic acid]
Experimental: as §1

Pentafluoropropionamide = compound: NC(=O)C(F)(F)C(F)(F)F [Pentafluoropropionamide]
Experimental: as §1

Perfluoroheptanoic acid = compound: O=C(O)C(F)(F)C(F)(F)C(F)(F)C(F)(F)C(F)(F)C(F)(F)F [Perfluoroheptanoic acid]
Experimental: as §1

Heptafluorobutyramide = compound: NC(=O)C(F)(F)C(F)(F)C(F)(F)F [Heptafluorobutyramide]
Experimental: as §1

Test System | level (log10) (Perfluoropentanoic acid; 6700 nM) | level (log10) (Perfluoropentanoic acid; 20000 nM) | level (log10) (Perfluoropentanoic acid; 60000 nM) | level (log10) ([1]; 6700 nM) | level (log10) ([1]; 20000 nM) | level (log10) ([2]; 6700 nM) | level (log10) ([2]; 20000 nM) | level (log10) ([2]; 60000 nM) | level (log10) ([3]; 6700 nM) | level (log10) ([3]; 20000 nM) | level (log10) ([3]; 60000 nM) | level (log10) (Pentafluoropropionamide; 6700 nM) | level (log10) (Pentafluoropropionamide; 20000 nM) | level (log10) (Pentafluoropropionamide; 60000 nM) | level (log10) (Perfluoroheptanoic acid; 6700 nM) | level (log10) (Perfluoroheptanoic acid; 20000 nM) | level (log10) (Perfluoroheptanoic acid; 60000 nM) | level (log10) (Heptafluorobutyramide; 6700 nM) | level (log10) (Heptafluorobutyramide; 20000 nM) | level (log10) (Heptafluorobutyramide; 60000 nM)
BE3C:Keratin 8/18 | -0.006 ± 0.0057 | -0.011 ± 0.0071 | 0.0035 ± 0.032 | -0.0185 ± 0.0092 | 0.0005 ± 0.0064 | -0.017 ± 0.014 | -0.021 ± 0.011 | 0.0075 ± 0.00071 | -0.006 ± 0.0085 | 0.005 ± 0.0042 | -0.012 ± 0.018 | -0.0185 ± 0.0021 | -0.0185 ± 0.005 | -0.0185 ± 0.018 | -0.0135 ± 0.005 | -0.0135 ± 0.0078 | -0.0025 ± 0.012 | -0.007 ± 0.0071 | -0.028 ± 0.0071 | -0.0265 ± 0.0078
BE3C:MMP-1 | -0.015 ± 0.03 | -0.0175 ± 0.029 | 0.027 ± 0.047 | 0.026 ± 0.0042 | 0.014 ± 0.0057 | -0.033 ± 0.059 | -0.0175 ± 0.0035 | 0.008 ± 0.051 | 0.043 ± 0.045 | 0.061 ± 0.0028 | 0.204 ± 0.047 | 0.0275 ± 0.015 | 0.0185 ± 0.028 | 0.0665 ± 0.037 | 0.0345 ± 0.015 | 0.0405 ± 0.043 | 0.0865 ± 0.067 | 0.007 ± 0.0057 | 0.0045 ± 0.018 | 0.0195 ± 0.073
BE3C:MMP-9 | -0.0325 ± 0.0078 | -0.0105 ± 0.015 | 0.0215 ± 0.035 | 0.0245 ± 0.039 | 0.022 ± 0.044 | -0.0105 ± 0.019 | 0.02 ± 0.023 | -0.009 ± 0.02 | 0.015 ± 0.02 | 0.0415 ± 0.00071 | 0.0255 ± 0.0021 | -0.002 ± 0.011 | -0.02 ± 0.031 | 0.004 ± 0.017 | 0.0015 ± 0.018 | 0.042 ± 0.0014 | 0.0785 ± 0.057 | -0.0135 ± 0.021 | 0.005 ± 0.0071 | 0.0005 ± 0.012
BE3C:PAI-I | -0.021 ± 0.0071 | -0.02 ± 0.0057 | 0.015 ± 0.057 | 0.007 ± 0.03 | 0.0205 ± 0.019 | -0.0235 ± 0.025 | -0.014 ± 0.038 | -0.0175 ± 0.023 | 0.0195 ± 0.04 | 0.0405 ± 0.023 | -0.0295 ± 0.0021 | 0.002 ± 0.0057 | -0.009 ± 0.03 | -0.016 ± 0.0028 | 0.007 ± 0.0028 | 0.027 ± 0.0057 | 0.042 ± 0.021 | -0.0065 ± 0.00071 | -0.0025 ± 0.00071 | -0.0115 ± 0.015
BE3C:SRB | 0.002 ± 0.0085 | -0.0035 ± 0.005 | 0 ± 0.016 | 0.009 ± 0.0099 | 0.0065 ± 0.016 | -0.003 ± 0.0014 | -0.004 ± 0.0099 | 0.0025 ± 0.0021 | -0.0075 ± 0.0035 | -0.007 ± 0.0057 | -0.0105 ± 0.0035 | -0.0015 ± 0.0021 | -0.001 | -0.0015 ± 0.005 | -0.006 ± 0.0071 | -0.0065 ± 0.0035 | 0.0035 ± 0.011 | -0.0025 ± 0.0035 | 0.0005 ± 0.00071 | -0.002 ± 0.0042
BE3C:tPA | -0.059 ± 0.011 | -0.043 ± 0.017 | -0.013 ± 0.064 | -0.0245 ± 0.00071 | -0.0325 ± 0.021 | -0.016 ± 0.0014 | -0.0305 ± 0.012 | -0.006 ± 0.016 | 0.075 ± 0.023 | 0.0285 ± 0.019 | 0.002 ± 0.025 | -0.0055 ± 0.012 | -0.001 ± 0.018 | 0.003 ± 0.02 | -0.0205 ± 0.026 | -0.0255 ± 0.0078 | 0.017 ± 0.031 | -0.027 ± 0.017 | -0.0055 ± 0.0021 | -0.0115 ± 0.028
